Results as given in patent US10138247B2, “7-(morpholin-4-yl)pyrazole[1,5-A]pyrimidine derivatives as PI3 kinase inhibitors” (priority 2015, dated 2018).
Read-outs that look alike come from different tables or passages of the source.

Legend:
PI3Kα = biological target: T1, PI3Kα (Homo sapiens, UniProt P42336); experiment: PI3K kinases inhibition in vitro (ADP-Glo), PI3Kα; assay type: biochemical
T1 construct: purchased Carna Biosciences

PI3Kβ = biological target: T2, PI3Kβ (Homo sapiens, UniProt P42338); experiment: PI3K kinases inhibition in vitro (ADP-Glo), PI3Kβ; assay type: biochemical
T2 construct: purchased Merck Millipore
T2 sequence (P42338 whole entry): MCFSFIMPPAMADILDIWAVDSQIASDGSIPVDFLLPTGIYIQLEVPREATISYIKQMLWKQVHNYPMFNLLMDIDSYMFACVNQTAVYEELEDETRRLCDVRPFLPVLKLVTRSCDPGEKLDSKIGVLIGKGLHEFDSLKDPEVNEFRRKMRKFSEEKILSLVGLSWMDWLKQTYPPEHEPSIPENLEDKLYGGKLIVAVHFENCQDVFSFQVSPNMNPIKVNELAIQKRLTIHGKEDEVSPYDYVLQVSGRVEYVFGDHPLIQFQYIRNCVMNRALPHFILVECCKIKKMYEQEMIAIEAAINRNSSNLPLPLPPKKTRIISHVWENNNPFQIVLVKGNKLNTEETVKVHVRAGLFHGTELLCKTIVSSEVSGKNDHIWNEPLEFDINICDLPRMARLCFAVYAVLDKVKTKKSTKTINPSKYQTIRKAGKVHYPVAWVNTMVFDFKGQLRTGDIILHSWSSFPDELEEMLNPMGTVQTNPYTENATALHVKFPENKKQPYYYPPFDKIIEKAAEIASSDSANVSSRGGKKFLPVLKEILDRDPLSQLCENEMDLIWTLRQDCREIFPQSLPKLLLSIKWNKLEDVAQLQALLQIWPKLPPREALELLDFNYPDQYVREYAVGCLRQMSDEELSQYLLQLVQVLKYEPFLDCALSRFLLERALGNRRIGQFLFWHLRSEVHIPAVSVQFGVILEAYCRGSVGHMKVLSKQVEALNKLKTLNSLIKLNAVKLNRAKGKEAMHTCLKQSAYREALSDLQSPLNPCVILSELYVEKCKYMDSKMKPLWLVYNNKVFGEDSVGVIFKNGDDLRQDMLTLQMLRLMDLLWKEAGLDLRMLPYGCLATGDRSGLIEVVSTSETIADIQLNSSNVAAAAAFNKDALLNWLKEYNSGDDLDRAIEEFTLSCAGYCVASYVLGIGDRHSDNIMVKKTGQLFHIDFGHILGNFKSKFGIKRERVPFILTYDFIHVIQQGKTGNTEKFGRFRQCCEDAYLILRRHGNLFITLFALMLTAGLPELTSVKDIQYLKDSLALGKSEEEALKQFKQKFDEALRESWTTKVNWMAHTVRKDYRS
T2 sequence (P27986 whole entry, further chain): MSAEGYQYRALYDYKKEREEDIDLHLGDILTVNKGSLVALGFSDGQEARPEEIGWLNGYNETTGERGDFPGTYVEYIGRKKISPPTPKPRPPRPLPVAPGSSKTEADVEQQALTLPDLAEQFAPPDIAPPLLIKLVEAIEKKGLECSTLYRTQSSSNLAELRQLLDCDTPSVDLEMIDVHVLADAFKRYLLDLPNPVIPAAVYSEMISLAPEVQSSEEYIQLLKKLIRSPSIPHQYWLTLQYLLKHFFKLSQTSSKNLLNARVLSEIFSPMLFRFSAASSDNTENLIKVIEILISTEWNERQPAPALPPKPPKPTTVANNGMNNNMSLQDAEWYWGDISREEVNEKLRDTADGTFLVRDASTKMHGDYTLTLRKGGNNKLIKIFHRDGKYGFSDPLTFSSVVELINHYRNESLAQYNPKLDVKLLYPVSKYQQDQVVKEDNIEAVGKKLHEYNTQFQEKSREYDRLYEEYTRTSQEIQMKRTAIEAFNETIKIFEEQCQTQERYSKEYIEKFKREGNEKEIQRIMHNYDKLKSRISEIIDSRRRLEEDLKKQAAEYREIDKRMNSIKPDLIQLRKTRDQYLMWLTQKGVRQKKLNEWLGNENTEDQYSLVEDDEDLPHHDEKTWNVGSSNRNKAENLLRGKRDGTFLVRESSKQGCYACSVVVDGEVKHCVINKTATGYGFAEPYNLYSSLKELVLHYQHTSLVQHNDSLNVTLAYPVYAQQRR
Procedure: (§1) Tested compounds were dissolved in 100% DMSO, and thus obtained solutions were serially diluted in 1× reaction buffer. Recombinant kinase was diluted in a reaction mixture comprising 5× reaction buffer, substrate (1 mM sodium diacetate 4,5-bisphosphate phosphatydylinositol (PIP2) solution in 40 mM Tris buffer), and water. To the wells in a 96-wells plate, 5 μl of compounds solutions and 15 μl of the kinase solution in the reaction mixture were added. To initiate interaction of tested chemical compounds with the enzyme, the plate was incubated for 10 minutes at suitable temperature in a plate thermostat with orbital shaking at 600 rpm. Negative control wells contained all above reagents except tested compound and kinase, and positive control wells contained all above reagents except tested compounds. Enzymatic reaction was initiated by adding 5 μl of 150 μM ATP solution, subsequently the plate was incubated for 1 hour at 25° C. or 30° C. (depending on PI3K isoform tested) in plate thermostat with orbital shaking of the plate contents at 600 rpm. Reaction conditions are presented below in Table 12.
(§2) Detection of ADP formed in the enzymatic reaction was then performed using ADP-Glo Kinase Assay (Promega). To the wells of a 96-well plate 25 μl of ADP-Glo Reagent were added, and the plate was incubated for 40 minutes at 25° C. in a plate thermostat with orbital shaking at 600 rpm. Then to the wells of 96-well plate 50 μl of Kinase Detection Reagent were added and the plate was incubated for 40 minutes at 25° C. in a plate thermostat with orbital shaking at 600 rpm. After incubation time, luminescence intensity in a well was measured by Victor Light luminometer (Perkin Elmer, Inc.).
(§3) IC50 values were determined on the basis of luminescence intensity measurements in wells containing tested compounds at different concentrations and in control wells. These values were calculated with Graph Pad 5.03 software by fitting the curve using non-linear regression. Each compound was tested at least in quadruplicates (4 wells) on two 96-well plates using at least 4 wells of each of the controls.

PI3Kγ = biological target: T3, PI3Kγ (Homo sapiens, UniProt P48736); experiment: PI3K kinases inhibition in vitro (ADP-Glo), PI3Kγ; assay type: biochemical
T3 construct: purchased Merck Millipore
T3 sequence (P48736 whole entry): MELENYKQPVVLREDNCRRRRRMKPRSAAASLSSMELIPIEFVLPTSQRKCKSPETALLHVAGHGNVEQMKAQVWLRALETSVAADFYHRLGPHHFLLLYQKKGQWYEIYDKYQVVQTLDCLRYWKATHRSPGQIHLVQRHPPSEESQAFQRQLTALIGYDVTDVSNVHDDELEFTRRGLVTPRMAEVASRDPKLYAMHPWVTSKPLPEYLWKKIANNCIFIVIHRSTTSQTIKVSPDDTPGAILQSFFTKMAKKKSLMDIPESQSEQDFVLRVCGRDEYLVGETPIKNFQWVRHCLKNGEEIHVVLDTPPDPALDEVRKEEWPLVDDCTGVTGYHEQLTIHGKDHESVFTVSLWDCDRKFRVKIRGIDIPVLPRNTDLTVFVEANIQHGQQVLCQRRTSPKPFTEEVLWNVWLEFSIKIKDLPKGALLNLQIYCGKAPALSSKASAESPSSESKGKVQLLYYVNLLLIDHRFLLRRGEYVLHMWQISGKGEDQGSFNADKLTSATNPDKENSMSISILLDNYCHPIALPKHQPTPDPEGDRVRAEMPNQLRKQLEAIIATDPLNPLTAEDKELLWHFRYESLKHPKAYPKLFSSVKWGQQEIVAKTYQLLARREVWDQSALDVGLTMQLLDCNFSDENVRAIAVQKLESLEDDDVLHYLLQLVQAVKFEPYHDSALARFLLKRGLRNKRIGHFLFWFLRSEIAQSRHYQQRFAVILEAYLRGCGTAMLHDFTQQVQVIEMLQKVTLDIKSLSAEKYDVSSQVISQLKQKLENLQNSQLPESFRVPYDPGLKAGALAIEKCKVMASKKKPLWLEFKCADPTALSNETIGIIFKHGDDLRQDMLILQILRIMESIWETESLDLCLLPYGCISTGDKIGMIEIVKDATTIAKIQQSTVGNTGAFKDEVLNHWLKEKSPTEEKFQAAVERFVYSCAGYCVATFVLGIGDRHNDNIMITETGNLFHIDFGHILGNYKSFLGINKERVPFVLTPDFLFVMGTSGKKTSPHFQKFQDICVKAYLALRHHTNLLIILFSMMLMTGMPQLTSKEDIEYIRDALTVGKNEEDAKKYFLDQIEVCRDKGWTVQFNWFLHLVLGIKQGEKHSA
Procedure: as §1, §2, §3

PI3Kδ = biological target: T4, PI3Kδ (Homo sapiens, UniProt O00329); experiment: PI3K kinases inhibition in vitro (ADP-Glo), PI3Kδ; assay type: biochemical
T4 construct: purchased Merck Millipore
T4 sequence (O00329 whole entry): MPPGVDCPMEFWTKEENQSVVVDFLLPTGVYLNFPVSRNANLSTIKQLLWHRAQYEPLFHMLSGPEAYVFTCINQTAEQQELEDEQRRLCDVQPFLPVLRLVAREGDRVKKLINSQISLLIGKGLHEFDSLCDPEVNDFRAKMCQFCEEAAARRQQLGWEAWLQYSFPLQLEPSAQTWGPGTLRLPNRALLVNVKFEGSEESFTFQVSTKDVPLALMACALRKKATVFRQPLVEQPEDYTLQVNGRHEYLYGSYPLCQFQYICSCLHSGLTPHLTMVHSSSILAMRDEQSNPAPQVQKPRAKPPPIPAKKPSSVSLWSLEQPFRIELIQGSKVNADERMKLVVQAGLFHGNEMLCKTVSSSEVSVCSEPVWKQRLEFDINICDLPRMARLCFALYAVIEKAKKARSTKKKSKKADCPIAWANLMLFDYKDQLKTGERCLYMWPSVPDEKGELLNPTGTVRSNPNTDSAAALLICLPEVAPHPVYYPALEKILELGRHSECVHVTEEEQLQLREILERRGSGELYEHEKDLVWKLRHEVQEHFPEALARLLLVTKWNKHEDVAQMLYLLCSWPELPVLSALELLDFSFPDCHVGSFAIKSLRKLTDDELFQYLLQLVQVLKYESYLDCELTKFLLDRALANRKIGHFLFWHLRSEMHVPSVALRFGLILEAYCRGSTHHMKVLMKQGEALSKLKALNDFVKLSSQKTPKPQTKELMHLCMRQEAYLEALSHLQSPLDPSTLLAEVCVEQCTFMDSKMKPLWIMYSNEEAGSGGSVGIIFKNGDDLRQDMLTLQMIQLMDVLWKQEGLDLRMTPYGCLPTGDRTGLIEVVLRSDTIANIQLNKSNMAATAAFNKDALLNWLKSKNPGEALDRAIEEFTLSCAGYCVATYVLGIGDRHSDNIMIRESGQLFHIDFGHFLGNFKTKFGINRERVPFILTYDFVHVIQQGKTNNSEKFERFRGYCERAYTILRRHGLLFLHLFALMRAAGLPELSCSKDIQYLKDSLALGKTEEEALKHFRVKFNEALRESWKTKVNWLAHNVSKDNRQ
T4 sequence (P27986 whole entry, further chain): as the sequence (P27986 whole entry, further chain) above

[1] = Pharmacokinetics testing in vivo, oral, rats; settings: rat, Wistar rats, oral 30 mg/kg, serum
Procedure: Tests were performed on about 12 weeks old Wistar rats, weight 250-300 g. Rats were given orally tested compounds at 30 mg/kg m.c. Blood samples were collected from animals for analysis in 6 time points—30 min, 1 h, 2 h, 4 h, 7 h, and 12 h from administration of the compound. Blood was collected to tubes with K2EDTA and centrifuged for 15 min, 2000×g, at room temperature to separate serum. Collected serum samples were maintained at −20° C. before analysis. Each of the compounds was tested on a group of 5 animals.
Serum concentrations of tested compounds were determined by spectrophotometry. For each of tested compounds, time to reach maximum serum concentration (Tmax), maximum concentration (Cmax), and area under the curve (AUC) were determined.

[2] = averaged, recombinant kinase, 30° C., 1 h, PIP2 50 μM, read-out: PI3Kγ IC50
[3] = averaged, recombinant kinase, 25° C., 1 h, PIP2 30 μM, read-out: PI3Kδ IC50

T1 sequence (P42336 whole entry): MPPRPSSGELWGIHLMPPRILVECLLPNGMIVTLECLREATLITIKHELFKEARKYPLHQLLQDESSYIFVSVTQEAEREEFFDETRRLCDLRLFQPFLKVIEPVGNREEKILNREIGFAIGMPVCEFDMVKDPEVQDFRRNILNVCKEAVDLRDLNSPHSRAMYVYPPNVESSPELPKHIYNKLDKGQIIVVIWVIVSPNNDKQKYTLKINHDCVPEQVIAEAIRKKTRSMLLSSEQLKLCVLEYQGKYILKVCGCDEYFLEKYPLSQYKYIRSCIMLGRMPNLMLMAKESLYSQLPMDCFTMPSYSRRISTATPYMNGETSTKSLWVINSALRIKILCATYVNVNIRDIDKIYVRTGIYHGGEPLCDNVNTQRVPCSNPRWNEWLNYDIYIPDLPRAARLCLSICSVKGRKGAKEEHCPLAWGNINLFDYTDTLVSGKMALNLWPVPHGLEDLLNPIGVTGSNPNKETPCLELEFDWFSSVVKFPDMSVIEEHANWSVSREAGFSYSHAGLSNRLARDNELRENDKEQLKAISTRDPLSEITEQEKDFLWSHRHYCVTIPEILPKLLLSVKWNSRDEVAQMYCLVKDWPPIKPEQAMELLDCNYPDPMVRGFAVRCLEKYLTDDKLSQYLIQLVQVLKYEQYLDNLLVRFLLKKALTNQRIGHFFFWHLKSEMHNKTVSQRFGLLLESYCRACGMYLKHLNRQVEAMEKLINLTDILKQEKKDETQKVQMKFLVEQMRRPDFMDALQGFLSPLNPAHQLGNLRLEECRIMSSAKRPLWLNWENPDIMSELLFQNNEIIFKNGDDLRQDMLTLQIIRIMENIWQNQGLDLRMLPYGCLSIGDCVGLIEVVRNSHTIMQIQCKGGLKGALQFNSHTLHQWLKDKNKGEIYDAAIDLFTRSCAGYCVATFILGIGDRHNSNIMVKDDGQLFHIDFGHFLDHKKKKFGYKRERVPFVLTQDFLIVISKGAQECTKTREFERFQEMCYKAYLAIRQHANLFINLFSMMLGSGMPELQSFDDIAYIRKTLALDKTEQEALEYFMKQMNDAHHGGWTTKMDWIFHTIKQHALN
T1 sequence (P27986 whole entry partner): as the sequence (P27986 whole entry, further chain) above

SMILES	IC50 (PI3Kα) [nM]	IC50 (PI3Kβ) [nM]	IC50 (PI3Kγ) [nM]	IC50 (PI3Kδ) [nM]	AUC [1] [ng·h/mL]	Cmax [1] [ng/mL]	Tmax [1] [h]	IC50 (PI3Kγ; [2]) [nM]	IC50 (PI3Kδ; [3]) [nM]	IC50 (PI3Kβ; averaged, recombinant kinase, 30° C., 1 h, PIP2 50 μM, read-out: PI3Kβ IC50) [nM]
CC(C)(O)C1CCN(Cc2cc3nc(-c4cccc5[nH]ccc45)cc(N4CCOCC4)n3n2)CC1 [Example 4, 2-((4-(2-hydroxypropan-2-yl)-piperidin-1-yl)methyl)-5-(1H-indol-4-yl)-7-(morpholin-4-yl)pyrazolo [1,5-a]pyrimidine]	> 1000	> 1000	> 1000	< 100	3580	600	2			
CC(C)(C)N1CCN(Cc2cc3nc(-c4cccc5[nH]ccc45)cc(N4CCOCC4)n3n2)CC1 [Example 8, 2-((4-tert-butylpiperazin-1-yl)-methyl)-5-(1H-indol-4-yl)-7-(morpholin-4-yl)pyrazolo[1,5-a]-pyrimidine]	> 1000	> 1000	> 1000	< 100	1290	200	2			
CC(C)(C)N1CCN(Cc2cc3nc(-c4c(F)ccc5[nH]ccc45)cc(N4CCOCC4)n3n2)CC1 [Example 11, 2-((4-tert-butylpiperazin-1-yl)-methyl)-5-(5-fluoro-1H-indol-4-yl)-7-(morpholin-4-yl)pyrazolo[1,5-a]-pyrimidine]	> 1000	> 1000			1250	300	2	> 1000	< 100	
CC(C)(C)N1CCN(Cc2cc3nc(-n4c(C(F)F)nc5ccccc54)cc(N4CCOCC4)n3n2)CC1 [Example 50, 5-(2-(difluoromethyl)benzimidazol-1-yl)-2-((4-tert-butylpiperazin-1-yl)methyl)-7-(morpholin-4-yl)-pyrazolo[1,5-a]pyrimidine]	100 to 1000				5030	900	2	> 1000	< 100	> 1000
